Measured values from US20250082797A1, “Methods for In Vivo Tracking of Cells” (Wisconsin Alumni Research Foundation, priority 2023, published 2025).

Tested on: cell line U937
Assay: Optimization of glycan oxidation conditions, cell viability by trypan blue staining
Assay type: cell-based
Protocol: Method 2: Conditions for biocompatible oxime ligation and ^89Zr-labeling of monocytes. Reactive aldehydes were generated on the cell surface of the monocytic cell line U937 through sialic acid oxidation with NaIO4. Oxidation conditions were optimized by varying NaIO4 concentration (0.1-10 mM), pH (4.6-7.4), temperature (4 or 37° C.), and incubation time (15 min to 2 h). Subsequently, cells were incubated with AOD (100-500 μM) at room temperature for up to 1 h in the presence of aniline, and cells were washed and resuspended in PBS. Next, AOD-conjugated (5-7×10^6) cells were radiolabeled with ^89Zr (37-74 MBq) at room temperature for 1h, then washed thrice to eliminate unlabeled ^89Zr, and the radiochemical yield was measured by TLC (FIG. 9A-9D). Cell viability was assessed at each step via trypan blue staining (FIG. 8).

In the case of `[Na+].[O-][I+3]([O-])([O-])[O-]` [sodium periodate], the “viability of U937 cells after oxidation” value (1 mM, up to 1 hour) is reported as “over 90%” and the “effect of glycan oxidation on cell viability, in words” value (tested temperature and reaction times) is reported as “minimal effect on cell viability”.
